Measurements reported in ChEMBL document CHEMBL5352398 (Eur J Med Chem, 2022).
pIC50: −log10 of the molar value.

Tests used:
[1] = biological target: T1, Solute carrier family 2, facilitated glucose transporter member 9 (Mus musculus) (UniProt Q3T9X0); assay: Inhibition of mouse GLUT9 transfected in human HEK293 cells assessed as inhibition of uric acid induced current at 10 uM by cell patch-clamp assay; type: cell-based
T1 sequence (whole entry): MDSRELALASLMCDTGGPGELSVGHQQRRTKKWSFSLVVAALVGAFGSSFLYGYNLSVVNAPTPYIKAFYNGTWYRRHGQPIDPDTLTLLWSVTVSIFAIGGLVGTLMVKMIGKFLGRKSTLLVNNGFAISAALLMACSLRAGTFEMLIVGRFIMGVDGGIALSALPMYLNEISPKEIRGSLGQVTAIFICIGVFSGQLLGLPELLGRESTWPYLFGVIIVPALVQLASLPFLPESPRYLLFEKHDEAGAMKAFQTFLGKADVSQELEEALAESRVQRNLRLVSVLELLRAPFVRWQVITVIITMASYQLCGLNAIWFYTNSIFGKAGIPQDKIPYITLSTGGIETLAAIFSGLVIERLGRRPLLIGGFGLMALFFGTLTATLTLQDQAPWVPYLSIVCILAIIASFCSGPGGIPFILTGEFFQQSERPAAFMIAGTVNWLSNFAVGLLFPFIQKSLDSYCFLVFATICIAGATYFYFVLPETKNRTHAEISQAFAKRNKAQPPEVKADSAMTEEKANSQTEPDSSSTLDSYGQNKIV

[2] = Hepatotoxicity in Kunming mouse assessed as increase in AST level in serum at 50 mg/kg,po for 14 days in presence of BSO; type: toxicity, organism-based; conditions: in vivo, 336 h, time 14 day
[3] = biological target: T2, Broad substrate specificity ATP-binding cassette transporter ABCG2 (Homo sapiens, UniProt Q9UNQ0); assay: Inhibition of ABCG2 (unknown origin) transfected in HEK293 cell membrane vesicle assessed as inhibition of 14C-uric acid uptake incubated for 15 mins in presence of ATP by liquid scintillation counter analysis; type: cell membranes
T2 sequence (Q9UNQ0 whole entry): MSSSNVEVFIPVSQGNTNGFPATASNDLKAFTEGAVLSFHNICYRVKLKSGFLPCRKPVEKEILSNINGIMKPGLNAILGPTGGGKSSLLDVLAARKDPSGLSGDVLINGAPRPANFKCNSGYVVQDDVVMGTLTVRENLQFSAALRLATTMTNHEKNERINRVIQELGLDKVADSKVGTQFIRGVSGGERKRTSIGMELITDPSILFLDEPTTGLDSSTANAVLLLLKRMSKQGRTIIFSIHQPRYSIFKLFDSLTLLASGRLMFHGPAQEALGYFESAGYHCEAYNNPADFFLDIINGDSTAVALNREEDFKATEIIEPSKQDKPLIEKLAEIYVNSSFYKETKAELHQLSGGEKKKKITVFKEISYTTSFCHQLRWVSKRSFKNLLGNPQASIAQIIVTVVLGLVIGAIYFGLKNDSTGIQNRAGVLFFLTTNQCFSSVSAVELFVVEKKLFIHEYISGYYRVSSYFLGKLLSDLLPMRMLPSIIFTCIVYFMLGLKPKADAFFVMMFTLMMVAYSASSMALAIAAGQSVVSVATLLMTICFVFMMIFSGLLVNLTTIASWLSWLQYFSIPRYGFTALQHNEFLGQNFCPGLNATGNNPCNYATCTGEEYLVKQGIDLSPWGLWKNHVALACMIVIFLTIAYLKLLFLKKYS

[4] = Tmax in Sprague-Dawley rat at 5 mg/kg, po and measured upto 24 hrs by LC-MS/MS analysis; type: ADME, organism-based; conditions: in vivo
[5] = Tmax in Sprague-Dawley rat at 5 mg/kg, iv and measured upto 24 hrs by LC-MS/MS analysis; type: ADME, organism-based; conditions: in vivo
[6] = Cmax in Sprague-Dawley rat at 5 mg/kg, po and measured upto 24 hrs by LC-MS/MS analysis; type: ADME, organism-based; set-up: dose 5 mg/kg, time < 24 hrs, route po; conditions: in vivo
[7] = Cmax in Sprague-Dawley rat at 5 mg/kg, iv and measured upto 24 hrs by LC-MS/MS analysis; type: ADME, organism-based; set-up: time < 24 hrs, dose 5 mg/kg, route iv; conditions: in vivo
[8] = Half life in Sprague-Dawley rat at 5 mg/kg, po and measured upto 24 hrs by LC-MS/MS analysis; type: ADME, organism-based; conditions: in vivo
[9] = Oral bioavailability in Sprague-Dawley rat at 5 mg/kg and measured upto 24 hrs by LCMS analysis; type: ADME, organism-based; conditions: in vivo
[10] = Cytotoxicity against human HK-2 cells assessed as inhibition of cell growth at 400 uM incubated for 72 hrs by MTT assay relative to control; type: toxicity, cell-based
[11] = Subacute toxicity in Kunming mouse assessed as animal death at 50 mg/kg,po for 14 days; type: organism-based; conditions: in vivo, 336 h, time 14 day
[12] = Subacute toxicity in Kunming mouse assessed as body weight change at 50 mg/kg,po for 14 days; type: organism-based; conditions: in vivo, 336 h, time 14 day
[13] = Subacute toxicity in Kunming mouse assessed as lethargy at 50 mg/kg,po for 14 days; type: organism-based; conditions: in vivo, 336 h, time 14 day
[14] = Hepatotoxicity in Kunming mouse assessed as increase in ALT level in serum at 50 mg/kg,po for 14 days in presence of BSO; type: toxicity, organism-based; conditions: in vivo, 336 h, time 14 day
[15] = Toxicity in Kunming mouse assessed as irregular cell arrangements at 50 mg/kg, po and measured after 14 days by HE staining based microscopy; type: organism-based; conditions: in vivo, 336 h, time 14 day
[16] = Toxicity in Kunming mouse assessed as steatosis in liver at 50 mg/kg, po and measured after 14 days by HE staining based microscopy; type: organism-based; conditions: in vivo, 336 h, time 14 day
[17] = Toxicity in Kunming mouse assessed as appearance of normal glomerulus cells in kidney at 50 mg/kg, po administered and measured after 14 days by HE staining; type: organism-based; conditions: in vivo, 336 h, time 14 day
[18] = test system: HepG2; assay: Cytotoxicity against human HepG2 cells assessed as reduction in cell viability upto 400 uM incubated for 24 hrs by MTT assay; type: toxicity, cell-based; conditions: hepg2, 24 h
[19] = Toxicity in Kunming mouse assessed as inflammatory infiltration in kidney at 50 mg/kg, po administered and measured after 14 days by HE staining; type: organism-based; conditions: in vivo, 336 h, time 14 day

## CCc1oc2ccccc2c1C(=O)c1cc(Br)c(O)c(Br)c1 [BENZBROMARONE]
[1]
  inhibition: 26%
[2]
  Activity: Non-Toxic
[3]
  pIC50: 6.47
[4]
  Tmax: 37.8 min
[5]
  Tmax: 30 min
[6]
  Cmax: 4250 ng/mL
[7]
  Cmax: 14700 ng/mL
[8]
  half-life: 107 min
[9]
  bioavailability: 36.1%
[10]
  inhibition at 72 h, 400 µM: 40.1%
[11]
  Activity: Non-Toxic
[12]
  Activity: Non-Toxic
[13]
  Activity: Non-Toxic
[14]
  Activity: Non-Toxic
[15]
  Activity: Non-Toxic
[16]
  Activity: Non-Toxic
[17]
  Activity: Non-Toxic
[18]
  Activity: Toxic
[19]
  Activity: Toxic
